Values after ≈ are worked out from the molar mass of the structure shown. Like-named read-outs stand apart in the source and are kept apart here.

The assay has as its system Escherichia coli. The assay can be described thus: Plate reader antimicrobial susceptibility test (MIC) directly from positive blood culture. In kind it is cell-based. Conditions: for MIC: Escherichia coli. The protocol: The tests can also provide a low labor cost. Disclosed in this example are systems and methods for performing ASTs directly from positive blood cultures. De-identified hospital patient positive blood cultures were received within 8 hours of being flagged positive. ASTs were performed using various antimicrobial agents, namely seven antibiotics (ceftazidime, meropenem, tobramycin, levofloxacin, cefepime, gentamicin, and amikacin). The positive blood cultures were diluted 250-fold in cation-adjusted Mueller-Hinton Broth (CAMHB) media and 100 μL of this diluted sample was dispensed into each well of a 96-well microtiter plate, already containing 100 μL of varying concentration of one antibiotic. […] The sample-filled 96-well plate was sealed by sterile plastic film and incubated in a microtiter plate reader at 37° C. A temperature gradient of 0.5° C. was selected to prevent condensation on cover film. Each well was scanned every one hour from 400 to 895 nm with a 5 nm step starting from the time of incubation (0 hours) resulting in a total of nineteen spectra per well.
Relating to data analysis-spectra (400 to 895 nm) vs time were acquired from each well. Spectral principal components (PCs) were computed for all wells at each time point and those explaining at least 90% of the variance were calculated. […] Determining the lowest concentration for each antibiotic that inhibited growth based on these spectral overlaps determined the MIC for each antibiotic used.
The antibiotics concentrations are as in the plate layout and growth is measures as absorption at each excitation wavelength compares with the positive controls. Dark red indicates growth while bright red indicates no growth.

Setting [1] is: 6 hours incubation at 37° C, positive blood culture diluted 500-fold in CAMHB, assay of FIG. 4, read-out: MIC (6 hours).
The mark [2] stands for this setting: 8 hours incubation at 37° C, positive blood culture diluted 500-fold in CAMHB, assay of FIG. 4, read-out: MIC (8 hours).
[3] abbreviates: 10 hours incubation at 37° C, positive blood culture diluted 500-fold in CAMHB, assay of FIG. 4, read-out: MIC (10 hours).
Setting [4] is: 18 hours incubation at 37° C, positive blood culture diluted 500-fold in CAMHB, assay of FIG. 4, read-out: MIC (18 hours).

Turning to `NCC[C@H](O)C(=O)N[C@@H]1C[C@H](N)[C@@H](O[C@H]2O[C@H](CN)[C@@H](O)[C@H](O)[C@H]2O)[C@H](O)[C@H]1O[C@H]1O[C@H](CO)[C@@H](O)[C@H](N)[C@H]1O` [Amikacin, amikacin], the MIC reads like this: under setting [1], 2 µg/mL (≈ 3.42 µM); under setting [2], 2 µg/mL (≈ 3.42 µM); under setting [3], 2 µg/mL (≈ 3.42 µM); under setting [4], 2 µg/mL (≈ 3.42 µM).

For `CO/N=C(\C(=O)N[C@@H]1C(=O)N2C(C(=O)[O-])=C(C[N+]3(C)CCCC3)CS[C@H]12)c1csc(N)n1` [Cefepime, cefepime], the MIC is at most 0.0312 µg/mL (6 h, read-out: MIC (6 hours)); at most 0.0312 µg/mL (8 h, read-out: MIC (8 hours)); at most 0.0312 µg/mL (10 h, read-out: MIC (10 hours)); at most 0.0312 µg/mL (18 h, read-out: MIC (18 hours)).

For `CC(C)(O/N=C(\C(=O)N[C@@H]1C(=O)N2C(C(=O)[O-])=C(C[n+]3ccccc3)CS[C@H]12)c1csc(N)n1)C(=O)O` [Ceftazidime, ceftazidime], the MIC under setting [1] is 0.0625 µg/mL (≈ 0.114 µM), the minimal inhibitory concentration (MIC) under setting [2] is 0.0625 µg/mL (≈ 0.114 µM), the MIC under setting [3] was 0.0625 µg/mL (≈ 0.114 µM) and the MIC under setting [4] is 0.0625 µg/mL (≈ 0.114 µM).

As for `C[C@H]1COc2c(N3CCN(C)CC3)c(F)cc3c(=O)c(C(=O)O)cn1c23` [Levofloxacin, levofloxacin], the minimal inhibitory concentration (MIC) is at most 0.0312 µg/mL under setting [1], at most 0.0312 µg/mL under setting [2], at most 0.0312 µg/mL under setting [3] and at most 0.0312 µg/mL under setting [4].

For `C[C@@H](O)[C@H]1C(=O)N2C(C(=O)O)=C(S[C@@H]3CN[C@H](C(=O)N(C)C)C3)[C@H](C)[C@H]12` [Meropenem, meropenem], the minimum inhibitory concentration (MIC) by setting is: under setting [1], at most 0.0312 µg/mL; under setting [2], at most 0.0312 µg/mL; under setting [3], at most 0.0312 µg/mL; under setting [4], at most 0.0312 µg/mL.

Take `NC[C@H]1O[C@H](O[C@H]2[C@H](O)[C@@H](O[C@H]3O[C@H](CO)[C@@H](O)[C@H](N)[C@H]3O)[C@H](N)C[C@@H]2N)[C@H](N)C[C@@H]1O` [Tobramycin, tobramycin]: the MIC worked out at 1 µg/mL (≈ 2.14 µM) under setting [1], 1 µg/mL (≈ 2.14 µM) under setting [2], 1 µg/mL (≈ 2.14 µM) under setting [3] and 1 µg/mL (≈ 2.14 µM) under setting [4].

As for gentamicin, under “6 hours incubation at 37° C, positive blood culture diluted 500-fold in CAMHB, assay of FIG. 4”, the “MIC (6 hours)” value came to 1 µg/mL. Further, the “MIC (8 hours)” value (8 hours incubation at 37° C, positive blood culture diluted 500-fold in CAMHB, assay of FIG. 4) worked out at 1 µg/mL. Further, the “MIC (10 hours)” value (10 hours incubation at 37° C, positive blood culture diluted 500-fold in CAMHB, assay of FIG. 4) turned out to be 1 µg/mL. Also, the “MIC (18 hours)” value (18 hours incubation at 37° C, positive blood culture diluted 500-fold in CAMHB, assay of FIG. 4) turned out to be 1 µg/mL.

A word on the MIC: it is the least concentration at which growth counts as inhibited.

Values taken from US20250361543A1, “Instrumentation for Rapid Antimicrobial Susceptibility Testing from Bodily Fluids and Cultures” (Georgia Tech Research Corporation, priority 2022, published 2025).
